Data on one molecule can be found in publication PMC10285648, “iTAG an optimized IMiD-induced degron for targeted protein degradation in human and murine cells” (iScience, 2023).

One assay deals with CT26 cells. Nature of the assay: Quantitative multiplexed proteomics of CT26 cells treated with thalidomide derivatives. It is filed as cell-based, mouse. The following applies: 24h. As for the experimental part: After showing that iTAG was active in mouse cells, we explored whether more potential degrons were active in the murine context. […]2216[50] and profiled the cellular proteomes using quantitative multiplexed proteomics. […] Data are plotted as Log2 fold change relative to DMSO versus Log10 of p value. (B) Proteome of CT26 CRBN KO cells treated with 10uM of FPFT2216 for 24h analyzed and plotted as in (A). (C) HEK293T, CT26, AT3 and 4434 cells treated with 10uM of FPFT2216 for 24h in presence of absence of MLN4924. […] were analyzed using western blotting. (D) Structural representation of PDE6D with the critical […] highlighted in red. (E) CT26, AT3 and 4434 cells transiently expressing WT or […] mutant Flag-PDE6D treated with 10uM of FPFT2216 for 16h. (F) Docking model for FPFT-2216 (in magenta) in the binding site of mouse CRBN (in orange). H-bond interactions are shown as cyan dashes. (G) Binding model for the ternary complex formed by mouse CRBN (in orange), mouse PDE6D (in cyan) and FPFT-2216 (in magenta), showing the […] loop close to the molecular glue. Samples for quantitative proteomics were prepared using the […] workflow.[60] Briefly, the cell pellets were lysed in a buffer containing 150 μL 0.1 M triethylammonium bicarbonate (TEAB), 1% sodium deoxycholate (SDC), 10% isopropanol, 50mM NaCl, 5 mM tris-2-carboxyethyl phosphine (TCEP), 10 mM iodoacetamide (IAA), universal nuclease, and supplemented with protease and phosphatase inhibitors. Samples were bath sonicated for 5 min, incubated at RT for 45 min and protein concentration was measured with the Bradford Protein Assay (Biorad) according to manufacturer instructions. Aliquots containing 30 μg of total protein were used for protein digestion. The resultant peptides were labeled with a tandem mass tag (TMTpro) multiplex reagent vial (Thermo Scientific) according to the manufacturer instructions. All the TMT-labelled samples were combined in equal amounts to a single tube. The TMT-peptide mixture was acidified with 1% formic acid and the precipitated SDC was removed by centrifugation. The sample was then dried with a centrifugal vacuum concentrator. LC-MS analysis was performed on the Dionex Ultimate 3000 UHPLC system coupled with the Orbitrap Lumos mass spectrometer (Thermo Scientific). Samples were analyzed with the EASY-Spray C18 capillary column (75 μm × 50 cm, 2 μm) at 50°C. […] MS3 quantification was obtained with higher-energy collisional dissociation (HCD) fragmentation of the top 5 most abundant CID fragments isolated with synchronous precursor selection (SPS). […] The SEQUEST-HT search engine was used to analyze the acquired mass spectra in Proteome Discoverer 2.4 (Thermo Scientific) for protein identification and quantification. […]

A further assay addresses T1, PDE6D (Mus musculus, UniProt O55057+Q8C7D2).
T1 construct: endogenous in cells; host or cells: AT3, 4434, CT26 (mouse); HEK293T run as human control
Nature of the assay: Western blot validation of PDE6D degradation. It is filed as cell-based. The following applies: AT3, 4434 and CT26, 10uM, 24h, western blotting. On the procedure: (§1) Figure 6 FPFT2216 induces the degradation of PDE6D in murine cells (A) Proteomes of CT26 cells treated with 10uM of the indicated compounds for 24h and analyzed using quantitative proteomics. Data are plotted as Log2 fold change relative to DMSO versus Log10 of p value. (B) Proteome of CT26 CRBN KO cells treated with 10uM of FPFT2216 for 24h analyzed and plotted as in (A). (C) HEK293T, CT26, AT3 and 4434 cells treated with 10uM of FPFT2216 for 24h in presence of absence of MLN4924. Lysats were analyzed using western blotting. (D) Structural representation of PDE6D with the critical Glycine 28 highlighted in red. (E) CT26, AT3 and 4434 cells transiently expressing WT or G28N mutant Flag-PDE6D treated with 10uM of FPFT2216 for 16h. (F) Docking model for FPFT-2216 (in magenta) in the binding site of mouse CRBN (in orange). H-bond interactions are shown as cyan dashes. (G) Binding model for the ternary complex formed by mouse CRBN (in orange), mouse PDE6D (in cyan) and FPFT-2216 (in magenta), showing the Gly28 loop close to the molecular glue.
(§2) Cells were lysed with SDS lysis buffer (2% SDS, 10% Glycerol, 50mM Tris pH 6.8) and boiled at 95°C for 30min. Protein concentration was measured using Pierce BCA Protein Assay Kit (ThermoFischer) following manufacturer’s recommendations. […]

For another assay, the system named is CK1α. Nature of the assay: Western blot validation of CK1α degradation. The following applies: HEK293T versus AT3, 4434, CT26, 10uM, 24h, western blotting. It is filed as cell-based, human, mouse. On the procedure:
as §1, §2
On the technique in general: Immunoblotting shows a protein as a band on a membrane.

In the next assay the target is T2, Flag-PDE6D G28N mutant (Mus musculus, UniProt O55057, G28N).
T2 construct: expressed in transfected cells; host or cells: CT26, AT3 and 4434 murine cells, transient
T2 sequence (Q8C7D2 whole entry partner): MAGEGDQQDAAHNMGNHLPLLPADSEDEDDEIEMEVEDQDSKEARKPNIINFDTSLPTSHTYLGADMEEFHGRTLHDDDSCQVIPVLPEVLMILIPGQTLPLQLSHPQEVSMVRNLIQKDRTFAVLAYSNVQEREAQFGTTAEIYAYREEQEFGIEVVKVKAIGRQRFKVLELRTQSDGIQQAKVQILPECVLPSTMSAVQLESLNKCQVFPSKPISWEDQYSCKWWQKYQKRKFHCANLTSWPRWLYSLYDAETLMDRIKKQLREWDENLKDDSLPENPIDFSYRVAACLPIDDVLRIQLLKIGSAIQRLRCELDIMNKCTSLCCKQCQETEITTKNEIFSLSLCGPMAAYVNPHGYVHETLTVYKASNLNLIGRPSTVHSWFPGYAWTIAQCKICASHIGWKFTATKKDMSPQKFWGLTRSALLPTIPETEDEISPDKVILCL
T2 sequence (Q3U1J4 2-1140 partner limits assumed): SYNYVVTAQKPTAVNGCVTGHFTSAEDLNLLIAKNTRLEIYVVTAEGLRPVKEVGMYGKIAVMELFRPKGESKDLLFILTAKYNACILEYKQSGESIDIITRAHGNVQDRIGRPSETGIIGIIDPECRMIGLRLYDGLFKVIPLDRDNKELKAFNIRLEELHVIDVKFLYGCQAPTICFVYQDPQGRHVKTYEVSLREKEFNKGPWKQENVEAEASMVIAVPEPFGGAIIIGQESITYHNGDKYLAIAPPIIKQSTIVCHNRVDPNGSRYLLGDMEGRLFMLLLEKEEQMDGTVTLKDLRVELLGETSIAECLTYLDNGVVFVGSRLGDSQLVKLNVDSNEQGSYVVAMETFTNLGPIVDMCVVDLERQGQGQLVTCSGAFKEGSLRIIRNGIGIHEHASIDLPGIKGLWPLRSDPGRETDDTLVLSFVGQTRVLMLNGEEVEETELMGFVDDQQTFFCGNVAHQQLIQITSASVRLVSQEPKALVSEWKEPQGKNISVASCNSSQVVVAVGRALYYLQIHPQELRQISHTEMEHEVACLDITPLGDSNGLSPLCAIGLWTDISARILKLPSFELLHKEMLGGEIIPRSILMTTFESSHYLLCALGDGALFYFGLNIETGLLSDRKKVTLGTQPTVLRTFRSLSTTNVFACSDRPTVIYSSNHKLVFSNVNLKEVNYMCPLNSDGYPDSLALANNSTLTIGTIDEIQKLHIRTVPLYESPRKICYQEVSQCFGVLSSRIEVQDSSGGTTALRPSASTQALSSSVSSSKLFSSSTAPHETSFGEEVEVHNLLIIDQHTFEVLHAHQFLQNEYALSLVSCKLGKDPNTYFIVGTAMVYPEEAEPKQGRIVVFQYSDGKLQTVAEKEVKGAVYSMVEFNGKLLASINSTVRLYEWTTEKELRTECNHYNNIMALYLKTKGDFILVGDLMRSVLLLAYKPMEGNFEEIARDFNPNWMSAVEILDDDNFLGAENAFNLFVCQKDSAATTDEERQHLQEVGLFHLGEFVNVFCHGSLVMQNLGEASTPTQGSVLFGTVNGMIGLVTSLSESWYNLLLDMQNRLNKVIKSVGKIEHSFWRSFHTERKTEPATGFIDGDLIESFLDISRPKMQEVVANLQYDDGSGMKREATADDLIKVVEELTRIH
T2 sequence (O55057 whole entry G28N): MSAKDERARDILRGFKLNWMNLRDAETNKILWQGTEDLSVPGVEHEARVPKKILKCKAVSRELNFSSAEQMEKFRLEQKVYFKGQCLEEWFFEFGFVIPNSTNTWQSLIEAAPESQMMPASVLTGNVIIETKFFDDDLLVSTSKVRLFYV
Nature of the assay: Degradation of WT or G28N mutant Flag-PDE6D in murine cells. The following applies: CT26, AT3 and 4434, 10uM, 16h. It is filed as cell-based. On the procedure: as §1
After validating PDE6D degradation, we progressed to identify the critical degron site on the protein. We hypothesized that PDE6D binding to CRBN would require a Gly loop motif and used known structural features of IMiD degrons to map this site in PDE6D (see STAR Methods for details). […]

T1 sequence (O55057 whole entry): as the sequence (O55057 whole entry G28N) above, with N28G counted along it
T1 sequence (Q8C7D2 whole entry): as the sequence (Q8C7D2 whole entry partner) above
T1 sequence (Q3U1J4 2-1140 partner limits assumed): as the sequence (Q3U1J4 2-1140 partner limits assumed) above

As to `COc1cscc1-c1cn(C2CCC(=O)NC2=O)nn1` (centres unmarked) [FPFT2216], the “effect on cellular proteome” value with CT26 cells (CT26, 10uM) was “strong downregulation of PDE6D, Rab28 and to a much lesser extent CK1α”. The “CRBN dependence of proteome effects” value in the assay on CT26 cells (CT26 CRBN KO cells, 10uM) was “CRBN dependent”. Moreover, the “degradation of PDE6D” value at PDE6D is given as “induced the degradation of PDE6D”. In the assay with CK1α, the “degradation of CK1α” value was “only degraded in human cells”. Besides, at Flag-PDE6D G28N mutant, the “degradation of G28N mutant PDE6D” value was “not degraded”.
